Results taken from patent US20100048549A1, “Peptidomimetics selective for the somatostatin receptor subtypes 1 and/or 4” (priority 2005, published 2010).
Where a name gives a salt, the structure may show the parent alone. Read-outs that look alike come from different tables or passages of the source.

Key:
[1] = biological target: T1, human somatostatin receptor subtype sst5 (Homo sapiens, UniProt P35346); test: Competition binding with 125I-LTT-SRIF-28, CHO cell membranes, sst5; conditions: membranes of CHO cells transfected with human sst5
T1 construct: expressed in transfected cells; host or cells: CHO cells (membranes)
Description: (§1) The affinity of the compounds of the invention for the five human somatostatin receptor subtypes (sst1, sst2, sst3, sst4, and sst5) was determined in competition binding assays with (^125I-Tyr)-[Leu^8, DTrp^22]-Somatostatin-28 (^125I-LTT-SRIF-28). The biological material for these experiments consisted of membranes from Chinese hamster ovary (CHO) cells stably transfected with one of the five human somatostatin receptor subtypes. Membranes (3-20 μg of total protein per sample) and trace amount of ^125I-LTT-SRIF-28 were incubated in 10 mM Hepes, 1 mM EDTA, 5 mM MgCl2, 5 mg/ml of BSA and 30 μg/ml bacitracin, pH 7.6, with six concentrations of the compounds. Each concentration was run in duplicate. Nonspecific binding was defined by 1 μM somatostatin-14 (SRIF-14) and corresponded to 5-25% of total binding. After 60 min at room temperature, incubations were terminated by rapid vacuum filtration through GF/B glass fiber filter mats (presoaked at 4° C. in 200 ml of 10 mM Hepes, 1 mM EDTA, 5 mM MgCl2, pH 7.6) and three 5 ml washes with ice-cold wash buffer (20 mM TRIS, 1 mM EDTA, 5 mM MgCl2, pH 7.4). The filters were then dried, impregnated with scintillate and their radioactivity was measured by scintillation counting. […] Affinity constants (Ki) were calculated from the IC50 values according to the Cheng-Prusoff's equation (Cheng and Prusoff, 1973). […]

[2] = biological target: T2, human somatostatin receptor subtype sst2 (Homo sapiens, UniProt P30874); test: Competition binding with 125I-LTT-SRIF-28, CHO cell membranes, sst2; conditions: membranes of CHO cells transfected with human sst2
T2 construct: expressed in transfected cells; host or cells: CHO cells (membranes)
Description: as §1

[3] = biological target: T3, human somatostatin receptor subtype sst3 (Homo sapiens, UniProt P32745); test: Competition binding with 125I-LTT-SRIF-28, CHO cell membranes, sst3; conditions: membranes of CHO cells transfected with human sst3
T3 construct: expressed in transfected cells; host or cells: CHO cells (membranes)
Description: as §1

[4] = biological target: T4, human somatostatin receptor subtype sst1 (Homo sapiens, UniProt P30872); test: Competition binding with 125I-LTT-SRIF-28, CHO cell membranes, sst1
T4 construct: expressed in transfected cells; host or cells: CHO cells (membranes)
Description: (§2) The affinity of the compounds of the invention for the five human somatostatin receptor subtypes (sst1, sst2, sst3, sst4, and sst5) was determined in competition binding assays with (^125I-Tyr)-[Leu^8, DTrp^22]-Somatostatin-28 (^125I-LTT-SRIF-28). The biological material for these experiments consisted of membranes from Chinese hamster ovary (CHO) cells stably transfected with one of the five human somatostatin receptor subtypes. Membranes (3-20 μg of total protein per sample) and trace amount of ^125I-LTT-SRIF-28 were incubated in 10 mM Hepes, 1 mM EDTA, 5 mM MgCl2, 5 mg/ml of BSA and 30 μg/ml bacitracin, pH 7.6, with six concentrations of the compounds. Each concentration was run in duplicate. Nonspecific binding was defined by 1 μM somatostatin-14 (SRIF-14) and corresponded to 5-25% of total binding. After 60 min at room temperature, incubations were terminated by rapid vacuum filtration through GF/B glass fiber filter mats (presoaked at 4° C. in 200 ml of 10 mM Hepes, 1 mM EDTA, 5 mM MgCl2, pH 7.6) and three 5 ml washes with ice-cold wash buffer (20 mM TRIS, 1 mM EDTA, 5 mM MgCl2, pH 7.4). The filters were then dried, impregnated with scintillate and their radioactivity was measured by scintillation counting. The analysis of the experiments was carried out by nonlinear least square curve fitting. Affinity constants (Ki) were calculated from the IC50 values according to the Cheng-Prusoff's equation (Cheng and Prusoff, 1973). Experiments were repeated a minimum of three times.

[5] = biological target: T5, human somatostatin receptor subtype sst4 (Homo sapiens, UniProt P31391); test: Competition binding with 125I-LTT-SRIF-28, CHO cell membranes, sst4
T5 construct: expressed in transfected cells; host or cells: CHO cells (membranes)
Description: as §2

[6] = clinical trials; Eriksen et al. 1995, van Essen et al. 1997; cited from earlier work
[7] = membranes of CHO cells transfected with human sst1, read-out: sst1 Ki
[8] = membranes of CHO cells transfected with human sst4, read-out: sst4 Ki
[9] = bound only, read-out: Ki values for the sst1
[10] = bound only, read-out: Ki values for the sst4

T5 sequence (P31391 whole entry): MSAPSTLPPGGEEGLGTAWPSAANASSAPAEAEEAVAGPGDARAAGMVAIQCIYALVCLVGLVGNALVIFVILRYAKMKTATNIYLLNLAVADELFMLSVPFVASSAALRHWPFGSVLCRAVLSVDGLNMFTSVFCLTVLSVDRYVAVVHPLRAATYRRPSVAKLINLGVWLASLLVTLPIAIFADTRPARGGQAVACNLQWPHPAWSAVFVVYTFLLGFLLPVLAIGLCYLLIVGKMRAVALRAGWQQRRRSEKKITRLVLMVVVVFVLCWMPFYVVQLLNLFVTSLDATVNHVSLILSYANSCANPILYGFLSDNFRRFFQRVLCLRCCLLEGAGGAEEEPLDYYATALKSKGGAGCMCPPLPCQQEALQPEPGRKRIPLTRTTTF
T4 sequence (P30872 whole entry): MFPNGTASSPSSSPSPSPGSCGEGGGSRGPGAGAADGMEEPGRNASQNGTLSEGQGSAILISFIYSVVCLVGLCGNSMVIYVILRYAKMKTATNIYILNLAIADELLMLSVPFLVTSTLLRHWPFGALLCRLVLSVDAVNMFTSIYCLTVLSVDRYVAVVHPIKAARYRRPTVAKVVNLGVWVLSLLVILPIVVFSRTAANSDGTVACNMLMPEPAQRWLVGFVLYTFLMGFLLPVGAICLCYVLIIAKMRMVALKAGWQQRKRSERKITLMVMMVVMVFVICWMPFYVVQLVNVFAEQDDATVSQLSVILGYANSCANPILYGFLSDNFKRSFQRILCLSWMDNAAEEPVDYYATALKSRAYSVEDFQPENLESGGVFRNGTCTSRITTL
T1 sequence (P35346 whole entry): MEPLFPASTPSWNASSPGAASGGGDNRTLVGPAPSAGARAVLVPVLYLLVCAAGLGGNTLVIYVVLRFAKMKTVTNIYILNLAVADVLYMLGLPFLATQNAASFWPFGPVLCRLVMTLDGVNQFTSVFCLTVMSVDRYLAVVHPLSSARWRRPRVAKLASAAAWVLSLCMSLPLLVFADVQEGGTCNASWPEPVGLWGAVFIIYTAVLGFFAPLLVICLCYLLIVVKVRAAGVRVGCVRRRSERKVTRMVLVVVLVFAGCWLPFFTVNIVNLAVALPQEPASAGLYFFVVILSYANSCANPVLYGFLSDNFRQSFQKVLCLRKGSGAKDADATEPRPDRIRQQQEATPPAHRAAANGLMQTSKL
T3 sequence (P32745 whole entry): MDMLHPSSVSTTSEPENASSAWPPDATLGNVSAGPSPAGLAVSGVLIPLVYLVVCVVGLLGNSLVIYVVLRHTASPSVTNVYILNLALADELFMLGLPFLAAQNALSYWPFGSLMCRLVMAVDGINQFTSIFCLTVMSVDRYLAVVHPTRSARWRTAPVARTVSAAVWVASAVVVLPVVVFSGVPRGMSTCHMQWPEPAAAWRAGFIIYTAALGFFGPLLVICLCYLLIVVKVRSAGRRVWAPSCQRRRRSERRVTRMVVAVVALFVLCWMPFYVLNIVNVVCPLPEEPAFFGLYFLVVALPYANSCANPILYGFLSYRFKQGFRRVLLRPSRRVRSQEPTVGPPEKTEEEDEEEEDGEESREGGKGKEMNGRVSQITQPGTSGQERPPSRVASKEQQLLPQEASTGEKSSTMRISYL
T2 sequence (P30874 whole entry): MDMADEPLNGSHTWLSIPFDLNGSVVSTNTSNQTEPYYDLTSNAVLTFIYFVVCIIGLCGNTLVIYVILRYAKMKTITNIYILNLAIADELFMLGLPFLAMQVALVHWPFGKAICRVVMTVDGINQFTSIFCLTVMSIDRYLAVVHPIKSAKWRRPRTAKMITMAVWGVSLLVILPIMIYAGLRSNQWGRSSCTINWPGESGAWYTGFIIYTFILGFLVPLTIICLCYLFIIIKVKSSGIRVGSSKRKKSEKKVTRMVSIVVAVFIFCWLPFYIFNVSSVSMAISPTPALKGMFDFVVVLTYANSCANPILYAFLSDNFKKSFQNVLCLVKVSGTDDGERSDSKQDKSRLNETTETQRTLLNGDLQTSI

SMILES	Ki [1]	Ki [2]	Ki [3]	Ki [4, 7]	Ki [5, 8]	Ki [4, 9]	Ki [5, 10]	efficacy in prevention of restenosis [6]
Cc1ccc(S(=O)(=O)N[C@@H](CCN)CNCc2ccccc2)c2ccccc12 [compound 2, (S)-4-methylnaphthalene-1-sulfonic acid (3-amino-1-benzyl-aminomethylpropyl)amide]	> 3000 nM	> 10000 nM	> 3000 nM	200 ± 60 nM	5.6 ± 3.2 nM			
Cc1ccc(S(=O)(=O)N[C@@H](CCCNC(C)C)COc2ccccc2)c2ccccc12 [compound 33, (S)-4-methylnaphthalene-1-sulfonic acid (4-isopropylamino-1-phenoxymethylbutyl)amide]	> 3000 nM	> 10000 nM	> 3000 nM	9.6 ± 0.5 nM	110 ± 10 nM	< 300 nM	< 300 nM	
Cc1ccc(S(=O)(=O)N[C@H](CCN)COCc2ccccc2)c2ccccc12 [compound 64, (R)-4-methylnaphthalene-1-sulfonic acid (3-amino-1-benzyloxymethylpropyl)amide]						< 300 nM	< 300 nM	
Cc1ccc(S(=O)(=O)N[C@@H](CCNC2=NCCN2)COCc2ccccc2)c2ccccc12 [compound 79, (S)-4-methylnaphthalene-1-sulfonic acid [1-benzyloxymethyl-3-(4,5-dihydro-1H-imidazol-2-ylamino)propyl]amide formic acid salt]						< 300 nM	< 300 nM	
CC(C)[C@@H]1NC(=O)[C@H](CCCCN)NC(=O)[C@@H](Cc2c[nH]c3ccccc23)NC(=O)[C@H](Cc2ccc(O)cc2)NC(=O)[C@@H](NC(=O)[C@H](N)Cc2ccc3ccccc3c2)CSSC[C@@H](C(=O)N[C@H](C(N)=O)[C@@H](C)O)NC1=O [lanreotide]								failed to show efficacy
C[C@@H](O)[C@@H]1NC(=O)[C@H](CCCCN)NC(=O)[C@@H](Cc2c[nH]c3ccccc23)NC(=O)[C@H](Cc2ccccc2)NC(=O)[C@@H](NC(=O)[C@H](N)Cc2ccccc2)CSSC[C@@H](C(=O)N[C@H](CO)[C@@H](C)O)NC1=O [octreotide]								failed to show efficacy
